From patent publication EP4755384A1, “PHARMACEUTICAL COMPOSITION CONTAINING ANDROGEN RECEPTOR INHIBITOR/ANTAGONIST, METHOD AND USE” (Suzhou Kintor Pharmaceuticals, Inc., priority 2023, dated 2025)

Assays:
mice [1] = test: In-vivo efficacy experiment 1: hair scoring in depilated mice given DHT; set-up: key: 0 = no skin darkening, 5 = complete hair growth
Method: (§1) 100 mice were deeply anesthetized. First, the hair on the back of the mice was shaved off with an animal hair clipper. Then, depilatory cream (Veet, https://item.jd.com/6291245.html) was evenly applied to the skin surface of the mice. After leaving it for 7-10 minutes, the remaining hair was gently scraped off against the hair growth direction with a depilatory spatula. Finally, the residual depilatory cream on the skin surface was thoroughly washed off with a wet wipe to avoid skin burns in the mice.
(§2) The main observation indicators of this experiment are shown in FIG. 12 (literature on hair scoring: Biomolecules & Therapeutics, 17(3), 241-248 (2009)), which is described as follows: (Score 0: No darkening of skin colour observed in any areas; Score 1: Darkening of skin area from greyish to black; Score 2: Visible short hairs; Score 3: Sparse hairs; Score 4: Dense hairs; Score 5: Complete hair growth). After depilation, the mice were photographed and scored three times a week until the end of the experiment.
as §1, with “cream” for “cream (Veet, https://item.jd.com/6291245.html)”
DHT and test substances (compound of formula I and minoxidil) were administered starting on the day following depilation, which was recorded as Day 1 (the day of depilation was recorded as Day 0). 64 mice in good condition were randomly selected and assigned to each group. Table 1 Experimental grouping
(§3) According to the grouping in Table 1, and the corresponding administration dose, test substance concentration and administration volume, […] above experimental design and methods. For groups G7 and G8, which received a combined administration of the compound of formula I and minoxidil, one drug was administered first followed by the other, with the administration interval between the two drugs not exceeding 1 minute.
(§4) Starting from the first day of administration, body weight was weighed and recorded twice a week, and hair regrowth (anagen) scoring and photography were performed […], until the end of the experiment. Scoring was conducted according to the criteria described in the experimental design.

mice [2] = test: In-vivo efficacy experiment 2: hair scoring in depilated mice given DHT; set-up: key: 0 = no skin darkening, 5 = complete hair growth
Method: as §1, with “120” for “100”
DHT and test substances (compound of formula I and minoxidil) were administered starting on the day following depilation, which was recorded as Day 1 (the day of depilation was recorded as Day 0). 86 mice in good condition were randomly selected and assigned to each group.
as §2, with “experiment. Table 4 Experimental grouping” for “experiment.”
as §3, with “4,” for “1,”, “groups G6,” for “groups”
as §4

[3] = Day 11, DHT model group: DHT 30 mg/kg subcutaneous injection QD + vehicle topical
[4] = Day 21, DHT model group: DHT 30 mg/kg subcutaneous injection QD + vehicle topical
[5] = Day 11, compound of formula I 0.5% (5 mg/mL) 150 µL topical QD, DHT 30 mg/kg subcutaneous QD
[6] = Day 21, compound of formula I 0.5% (5 mg/mL) 150 µL topical QD, DHT 30 mg/kg subcutaneous QD
[7] = Day 11, minoxidil 5% (50 mg/mL) 150 µL topical QD, DHT 30 mg/kg subcutaneous QD
[8] = Day 21, minoxidil 5% (50 mg/mL) 150 µL topical QD, DHT 30 mg/kg subcutaneous QD

## C[C@]12CCC(=O)C[C@@H]1CC[C@@H]1[C@@H]2CC[C@]2(C)[C@@H](O)CC[C@@H]12 [DHT, Dihydrotestosterone]
Mice [1]; Day 7, DHT model group: DHT 30 mg/kg subcutaneous injection QD + vehicle topical
  Hair scoring in mice, Score: 0.00
Mice [1]; Day 9, DHT model group: DHT 30 mg/kg subcutaneous injection QD + vehicle topical
  Hair scoring in mice, Score: 0.00
Mice [1]; [3]
  Hair scoring in mice, Score: 0.13
Mice [1]; Day 14, DHT model group: DHT 30 mg/kg subcutaneous injection QD + vehicle topical
  Hair scoring in mice, Score: 0.38
Mice [1]; Day 16, DHT model group: DHT 30 mg/kg subcutaneous injection QD + vehicle topical
  Hair scoring in mice, Score: 0.63
Mice [1]; Day 18, DHT model group: DHT 30 mg/kg subcutaneous injection QD + vehicle topical
  Hair scoring in mice, Score: 1.25
Mice [1]; [4]
  Hair scoring in mice, Score: 1.75
Mice [1]; Day 23, DHT model group: DHT 30 mg/kg subcutaneous injection QD + vehicle topical
  Hair scoring in mice, Score: 2.13
Mice [2]; Day 8, DHT model group: DHT 30 mg/kg subcutaneous injection QD + vehicle topical
  Hair scoring in mice: 0.00
Mice [2]; [3]
  Hair scoring in mice: 0.00
Mice [2]; Day 15, DHT model group: DHT 30 mg/kg subcutaneous injection QD + vehicle topical
  Hair scoring in mice: 0.40
Mice [2]; Day 17, DHT model group: DHT 30 mg/kg subcutaneous injection QD + vehicle topical
  Hair scoring in mice: 0.50
Mice [2]; Day 19, DHT model group: DHT 30 mg/kg subcutaneous injection QD + vehicle topical
  Hair scoring in mice: 0.90
Mice [2]; [4]
  Hair scoring in mice: 1.10

## COc1c(C#N)ccc(N2C(=O)C(C)(C)N(c3ccc(C)nc3)C2=S)c1F [compound of formula I, 4-(4,4-dimethyl-3-(6-methylpyridin-3-yl)-5-oxo-2-thioxoimidazolidin-1-yl)-3-fluoro-2-methoxybenzonitrile]
Mice [1]; Day 7, compound of formula I 0.5% (5 mg/mL) 150 µL topical QD, DHT 30 mg/kg subcutaneous QD
  Hair scoring in mice, Score: 0.00
Mice [1]; Day 7, compound of formula I 1.0% (10 mg/mL) 150 µL topical QD, DHT 30 mg/kg subcutaneous QD
  Hair scoring in mice, Score: 0.00
Mice [1]; Day 9, compound of formula I 0.5% (5 mg/mL) 150 µL topical QD, DHT 30 mg/kg subcutaneous QD
  Hair scoring in mice, Score: 0.13
Mice [1]; Day 9, compound of formula I 1.0% (10 mg/mL) 150 µL topical QD, DHT 30 mg/kg subcutaneous QD
  Hair scoring in mice, Score: 0.13
Mice [1]; [5]
  Hair scoring in mice, Score: 0.38
Mice [1]; Day 11, compound of formula I 1.0% (10 mg/mL) 150 µL topical QD, DHT 30 mg/kg subcutaneous QD
  Hair scoring in mice, Score: 0.13
Mice [1]; Day 14, compound of formula I 0.5% (5 mg/mL) 150 µL topical QD, DHT 30 mg/kg subcutaneous QD
  Hair scoring in mice, Score: 0.88
Mice [1]; Day 14, compound of formula I 1.0% (10 mg/mL) 150 µL topical QD, DHT 30 mg/kg subcutaneous QD
  Hair scoring in mice, Score: 0.38
Mice [1]; Day 16, compound of formula I 0.5% (5 mg/mL) 150 µL topical QD, DHT 30 mg/kg subcutaneous QD
  Hair scoring in mice, Score: 1.13
Mice [1]; Day 16, compound of formula I 1.0% (10 mg/mL) 150 µL topical QD, DHT 30 mg/kg subcutaneous QD
  Hair scoring in mice, Score: 1.00
Mice [1]; Day 18, compound of formula I 0.5% (5 mg/mL) 150 µL topical QD, DHT 30 mg/kg subcutaneous QD
  Hair scoring in mice, Score: 1.75
Mice [1]; Day 18, compound of formula I 1.0% (10 mg/mL) 150 µL topical QD, DHT 30 mg/kg subcutaneous QD
  Hair scoring in mice, Score: 1.38
Mice [1]; [6]
  Hair scoring in mice, Score: 2.25
Mice [1]; Day 21, compound of formula I 1.0% (10 mg/mL) 150 µL topical QD, DHT 30 mg/kg subcutaneous QD
  Hair scoring in mice, Score: 1.88
Mice [1]; Day 23, compound of formula I 0.5% (5 mg/mL) 150 µL topical QD, DHT 30 mg/kg subcutaneous QD
  Hair scoring in mice, Score: 2.50
Mice [1]; Day 23, compound of formula I 1.0% (10 mg/mL) 150 µL topical QD, DHT 30 mg/kg subcutaneous QD
  Hair scoring in mice, Score: 2.38
Mice [2]; Day 8, compound of formula I 0.25% (2.5 mg/mL) 150 µL topical QD, DHT 30 mg/kg subcutaneous QD
  Hair scoring in mice: 0.00
Mice [2]; Day 8, compound of formula I 0.5% (5 mg/mL) 150 µL topical QD, DHT 30 mg/kg subcutaneous QD
  Hair scoring in mice: 0.00
Mice [2]; Day 11, compound of formula I 0.25% (2.5 mg/mL) 150 µL topical QD, DHT 30 mg/kg subcutaneous QD
  Hair scoring in mice: 0.00
Mice [2]; [5]
  Hair scoring in mice: 0.00
Mice [2]; Day 15, compound of formula I 0.25% (2.5 mg/mL) 150 µL topical QD, DHT 30 mg/kg subcutaneous QD
  Hair scoring in mice: 0.60
Mice [2]; Day 15, compound of formula I 0.5% (5 mg/mL) 150 µL topical QD, DHT 30 mg/kg subcutaneous QD
  Hair scoring in mice: 0.90
Mice [2]; Day 17, compound of formula I 0.25% (2.5 mg/mL) 150 µL topical QD, DHT 30 mg/kg subcutaneous QD
  Hair scoring in mice: 1.00
Mice [2]; Day 17, compound of formula I 0.5% (5 mg/mL) 150 µL topical QD, DHT 30 mg/kg subcutaneous QD
  Hair scoring in mice: 1.40
Mice [2]; Day 19, compound of formula I 0.25% (2.5 mg/mL) 150 µL topical QD, DHT 30 mg/kg subcutaneous QD
  Hair scoring in mice: 1.40
Mice [2]; Day 19, compound of formula I 0.5% (5 mg/mL) 150 µL topical QD, DHT 30 mg/kg subcutaneous QD
  Hair scoring in mice: 1.70
Mice [2]; Day 21, compound of formula I 0.25% (2.5 mg/mL) 150 µL topical QD, DHT 30 mg/kg subcutaneous QD
  Hair scoring in mice: 1.80
Mice [2]; [6]
  Hair scoring in mice: 2.20

## Nc1cc(N2CCCCC2)nc(N)[n+]1[O-] [minoxidil, Minoxidil]
Mice [1]; Day 7, minoxidil 2% (20 mg/mL) 150 µL topical QD, DHT 30 mg/kg subcutaneous QD
  Hair scoring in mice, Score: 0.00
Mice [1]; Day 7, minoxidil 5% (50 mg/mL) 150 µL topical QD, DHT 30 mg/kg subcutaneous QD
  Hair scoring in mice, Score: 0.13
Mice [1]; Day 9, minoxidil 2% (20 mg/mL) 150 µL topical QD, DHT 30 mg/kg subcutaneous QD
  Hair scoring in mice, Score: 0.29
Mice [1]; Day 9, minoxidil 5% (50 mg/mL) 150 µL topical QD, DHT 30 mg/kg subcutaneous QD
  Hair scoring in mice, Score: 0.25
Mice [1]; Day 11, minoxidil 2% (20 mg/mL) 150 µL topical QD, DHT 30 mg/kg subcutaneous QD
  Hair scoring in mice, Score: 0.57
Mice [1]; [7]
  Hair scoring in mice, Score: 0.38
Mice [1]; Day 14, minoxidil 2% (20 mg/mL) 150 µL topical QD, DHT 30 mg/kg subcutaneous QD
  Hair scoring in mice, Score: 0.86
Mice [1]; Day 14, minoxidil 5% (50 mg/mL) 150 µL topical QD, DHT 30 mg/kg subcutaneous QD
  Hair scoring in mice, Score: 1.00
Mice [1]; Day 16, minoxidil 2% (20 mg/mL) 150 µL topical QD, DHT 30 mg/kg subcutaneous QD
  Hair scoring in mice, Score: 1.14
Mice [1]; Day 16, minoxidil 5% (50 mg/mL) 150 µL topical QD, DHT 30 mg/kg subcutaneous QD
  Hair scoring in mice, Score: 1.75
Mice [1]; Day 18, minoxidil 2% (20 mg/mL) 150 µL topical QD, DHT 30 mg/kg subcutaneous QD
  Hair scoring in mice, Score: 1.86
Mice [1]; Day 18, minoxidil 5% (50 mg/mL) 150 µL topical QD, DHT 30 mg/kg subcutaneous QD
  Hair scoring in mice, Score: 2.63
Mice [1]; Day 21, minoxidil 2% (20 mg/mL) 150 µL topical QD, DHT 30 mg/kg subcutaneous QD
  Hair scoring in mice, Score: 2.29
Mice [1]; [8]
  Hair scoring in mice, Score: 3.13
Mice [1]; Day 23, minoxidil 2% (20 mg/mL) 150 µL topical QD, DHT 30 mg/kg subcutaneous QD
  Hair scoring in mice, Score: 2.71
Mice [1]; Day 23, minoxidil 5% (50 mg/mL) 150 µL topical QD, DHT 30 mg/kg subcutaneous QD
  Hair scoring in mice, Score: 3.50
Mice [2]; Day 8, minoxidil 5% (50 mg/mL) 150 µL topical QD, DHT 30 mg/kg subcutaneous QD
  Hair scoring in mice: 0.00
Mice [2]; [7]
  Hair scoring in mice: 0.25
Mice [2]; Day 15, minoxidil 5% (50 mg/mL) 150 µL topical QD, DHT 30 mg/kg subcutaneous QD
  Hair scoring in mice: 1.25
Mice [2]; Day 17, minoxidil 5% (50 mg/mL) 150 µL topical QD, DHT 30 mg/kg subcutaneous QD
  Hair scoring in mice: 1.88
Mice [2]; Day 19, minoxidil 5% (50 mg/mL) 150 µL topical QD, DHT 30 mg/kg subcutaneous QD
  Hair scoring in mice: 2.63
Mice [2]; [8]
  Hair scoring in mice: 2.75
